Values after ≈ are worked out from the molar mass of the structure shown. Where two headings read alike, the source gives them in different places.
How the values were obtained:
Format in all cases: cell-based
[1] = tested on: SaR1: Meticillin-Resistant Staphylococcus aureus without Associated Resistance; experiment: Antibiogram, MIC by the VITEK 2 system; conditions: SaR1
Protocol: (§1) The bacterial and antibiogramidentification is carried out by the VITEK 2 system (bioMérieux)

[2] = tested on: SaR3: Meticillin-Resistant Staphylococcus aureus; experiment: Antibiogram by the disk diffusion technique; conditions: for Diameter: Table E1; for diameter in mm: Table E2
Protocol: (§2) The bacterial and antibiogramidentification is carried out by the VITEK 2 system (bioMérieux) and by the disk diffusion technique

[3] = tested on: SaR4: Meticillin-Resistant Staphylococcus aureus; experiment: Antibiogram, MIC by the VITEK 2 system; conditions: SaR4
Protocol: as §2

[4] = tested on: SaR1: Meticillin-Resistant Staphylococcus aureus without Associated Resistance; experiment: Antibiogram, inhibition diameter (Table D1)
Protocol: as §1

[5] = tested on: EcR1: Penicillinase-Producing Escherichia coli without Associated Resistance; experiment: Antibiogram by the disk diffusion technique; conditions: for Diameter: EcR1, disk diffusion
Protocol: (§3) 5.1 EcR1: Penicillinase-Producing Escherichia coli without Associated Resistance The bacterial and antibiogramidentification is carried out by the VITEK 2 system (bioMérieux) and by the disk diffusion technique.

[6] = tested on: EcR3: ESBL-Producing Escherichia coli; experiment: Antibiogram by the disk diffusion technique; conditions: for Diameter: Table C1; for diameter in mm: Table C2
Protocol: The bacterial and antibiogramidentification is carried out by the VITEK 2 system (bioMerieux) and by the disk diffusion technique

[7] = tested on: PaR3: Pseudomonas aeruginosa; experiment: Antibiogram, MIC by the VITEK 2 system
Protocol: as §1

[8] = tested on: PaR5: Pseudomonas aeruginosa; experiment: Antibiogram by the disk diffusion technique; conditions: for diameter in mm: disk diffusion inhibition diameter, strain PaR5
Protocol: as §2

[9] = tested on: PaR2: Pseudomonas aeruginosa; conditions: for Diameter: Table G1; for diameter in mm: Table G2
Protocol: as §2

[10] = tested on: SaR4: Meticillin-Resistant Staphylococcus aureus; experiment: Antibiogram by the disk diffusion technique
Protocol: as §2

[11] = tested on: EcR1: Penicillinase-Producing Escherichia coli without Associated Resistance; experiment: Antibiogram, MIC by the VITEK 2 system; conditions: for MIC: Escherichia coli
Protocol: as §3

[12] = tested on: EcR2: Cephalosporinase-Hyperproducing Strain of Escherichia coli; experiment: Antibiogram, MIC by the VITEK 1 system; conditions: for MIC: Escherichia coli, read-out: MIC
Protocol: (§4) The bacterial and antibiogramidentification is carried out by the VITEK 1 system (bioMérieux) and by the disk diffusion technique

[13] = tested on: EcR2: Cephalosporinase-Hyperproducing Strain of Escherichia coli; experiment: Antibiogram by the disk diffusion technique; conditions: Table B1
Protocol: as §4

[14] = Staphylococcus aureus, Table D1, read-out: MIC
[15] = Staphylococcus aureus, Table F1, read-out: MIC
[16] = Staphylococcus aureus, Table F2, MIC, read-out: MIC
[17] = EcR1, Table A2, read-out: MIC mg/L (diameter in mm)
[18] = EcR1, VITEK 2, Table A1, read-out: MIC

Pristinamycin was tested, and the “CA-SFM Interpretation” value ([1]; Cc CA-SFM 2011) was “Susceptible”, the “MIC mg/L” value ([1]; Table D1) was “≦0.5 mg/L” and the Results ([1]; Table D1, from MIC) was “Susceptible”. For the same compound, the “MIC mg/L” value ([1]; Table D2) was “≦0.5 mg/L”, the “CA-SFM Interpretation” value ([2]; Cd CA-SFM 2011) was “Susceptible” and the Diameter [2] was 23 mm. For the same compound, the Results ([2]; Table E1, against Dmin Dmax) was “Susceptible”, the diameter in mm [2] was 23 mm and the “MIC mg/L” value ([3]; Table F1) was “≦2 mg/L”. The Results ([3]; Table F1, MIC) was “Susceptible”, the MIC ([3]; Table F2, MIC) was “≦2 mg/L” and the “CA-SFM Interpretation” value ([3]; from MIC, Cc CA-SFM 2011) was “Susceptible”. The Diameter [4] was 25 mm and the Results ([4]; from diameter, against Dmin Dmax) was “Susceptible”.
For `CN(C)c1ccc(O)c2c1C[C@H]1C[C@H]3[C@H](N(C)C)C(O)=C(C(N)=O)C(=O)[C@@]3(O)C(O)=C1C2=O` [Minocycline], the “MIC mg/L (diameter in mm)” value ([5]; EcR1, cells that print a diameter, Table A2) was 20 mm, the Diameter ([5]; Table A1) was 20 mm and the Diameter [6] was 21 mm. It also gave a diameter in mm [6] of 21 mm, an MIC ([7]; Pseudomonas aeruginosa, Table H2, read-out: MIC) of 4 µg/mL (≈ 8.74 µM) and an MIC ([7]; Table H1) of 4 µg/mL (≈ 8.74 µM). For the same compound, the “MIC mg/L” value ([1]; Table D2) was “≦0.5 mg/L”, the MIC [1, 14] was at most 0.5 µg/mL and the Diameter ([8]; PaR5, Table I1) was 11 mm. For the same compound, the diameter in mm [8] was 11 mm, the Diameter [2] was 26 mm and the diameter in mm [2] was 26 mm. The MIC [3, 15] was at most 4 µg/mL, the MIC [3, 16] was at most 0.5 µg/mL and the Diameter [9] was 6 mm. It also gave a diameter in mm [9] of 6 mm and a Diameter [4] of 27 mm.
`NC[C@H]1O[C@H](O[C@H]2[C@H](O)[C@@H](O[C@H]3O[C@H](CO)[C@@H](O)[C@H](N)[C@H]3O)[C@H](N)C[C@@H]2N)[C@H](O)[C@@H](O)[C@@H]1O` [Kanamycin] was tested, and the “MIC mg/L” value ([1]; Table D2) was “≦4 mg/L”, the MIC [1, 14] was at most 4 µg/mL and the Diameter [2] was 6 mm. The diameter in mm [2] was 6 mm, the Diameter ([10]; Table F1) was 7 and the Diameter ([10]; Table F2, diameters) was 7 mm. The Diameter [4] was 20 mm.
For `CCN[C@@H]1C[C@H](N)[C@@H](O[C@H]2OC(CN)=CC[C@H]2N)[C@H](O)[C@H]1O[C@H]1OC[C@](C)(O)[C@H](NC)[C@H]1O` [Netilmicin], the “CA-SFM Interpretation” value ([11]; EcR1, MIC against Cc CA-SFM 2011) was “Susceptible”, the “CLSI Interpretation” value ([11]; EcR1, MIC against Cc CLSI 2011) was “Susceptible” and the “EUCAST Interpretation” value ([11]; EcR1, MIC against Cc EUCAST 2011) was “Susceptible”. For the same compound, the Results ([11]; EcR1, interpretation of the MIC, Table A1) was “Susceptible”, the MIC [11, 17] was at most 1 mg/L and the MIC [11, 18] was at most 1 mg/L. The Diameter ([5]; Table A1) was 24 mm, the Results ([5]; EcR1, interpretation of the diameter against Dmin Dmax, Table A1) was “Susceptible” and the “CA-SFM Interpretation” value ([12]; EcR2, from MIC, Cc CA-SFM 2011) was “Susceptible”. For the same compound, the “CLSI Interpretation” value ([12]; EcR2, from MIC, Cc CLSI 2011) was “Susceptible”, the “EUCAST Interpretation” value ([12]; EcR2, from MIC, Cc EUCAST 2011) was “Susceptible” and the MIC ([12]; EcR2, VITEK 1, Table B1) was at most 1 µg/mL. The MIC ([12]; EcR2, Table B2, MIC) was at most 1 µg/mL, the Diameter ([13]; EcR2, disk diffusion) was 21 and the Results ([13]; EcR2, rows that print a diameter) was “Susceptible”. For the same compound, the “CA-SFM Interpretation” value ([6]; Cd CA-SFM 2011) was “Resistant”, the “CLSI Interpretation” value ([6]; Cd CLSI 2011) was “Resistant” and the “EUCAST Interpretation” value ([6]; Cd EUCAST 2011) was “Resistant”. For the same compound, the Diameter [6] was 10 mm, the Results ([6]; Table C1, against Dmin Dmax) was “Resistant” and the diameter in mm [6] was 10 mm. The Diameter ([8]; PaR5, Table I1) was 28 mm, the Results ([8]; PaR5, Table I1, against Dmin-Dmax) was “Susceptible” and the diameter in mm [8] was 28 mm. For the same compound, the “CA-SFM Interpretation” value ([8]; disk diffusion, PaR5, versus critical diameter CA-SFM 2011) was “Susceptible”, the “CLSI Interpretation” value ([8]; disk diffusion, PaR5, versus critical diameter CLSI 2011) was “Susceptible” and the “EUCAST Interpretation” value ([8]; disk diffusion, PaR5, versus critical diameter EUCAST 2011, for ** antibiotics the disk load differs and the EUCAST interpretation is not applicable) was “Susceptible”. The “CA-SFM Interpretation” value ([9]; Cd CA-SFM 2011) was “Susceptible”, the “CLSI Interpretation” value ([9]; Cd CLSI 2011) was “Susceptible” and the “EUCAST Interpretation” value ([9]; Cd EUCAST 2011) was “Susceptible”. The Diameter [9] was 19 mm, the Results ([9]; Table G1, against Dmin-Dmax) was “Susceptible” and the diameter in mm [9] was 19 mm.
For `CC1COc2c(N3CCN(C)CC3)c(F)cc3c(=O)c(C(=O)O)cn1c23` (stereo not drawn) [Ofloxacin], the MIC [11, 17] was at most 0.25 mg/L, the MIC [11, 18] was at most 0.25 mg/L and the “MIC” value ([1]; Table D2) was 1 µg/mL (≈ 2.77 µM). For the same compound, the MIC [1, 14] was 1 µg/mL (≈ 2.77 µM), the Diameter ([8]; PaR5, Table I1) was 11 mm and the Diameter [2] was 6 mm. The diameter in mm [2] was 6 mm, the MIC [3, 15] was at least 8 µg/mL and the MIC [3, 16] was at least 8 µg/mL. It also gave a Diameter [4] of 24 mm.
